Results reported in PubChem BioAssay (NCI).
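Dose response: 5 concentrations. Exposure: 48 h. Format: 96-well plates. Endpoint: linear interpolation; highest concentration if not reached. GI50 marks 50% less growth. Definition used: TGI = concentration required for complete inhibition of growth.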

Legend:
Test in all cases: growth of human tumour cells (NCI), 48 h
CCRF-CEM leukemia = tested on: CCRF-CEM leukemia
OVCAR-3 ovarian = tested on: OVCAR-3 ovarian
SK-OV-3 ovarian = tested on: SK-OV-3 ovarian
NCI/ADR-RES ovarian = tested on: NCI/ADR-RES ovarian
M14 melanoma = tested on: M14 melanoma
UACC-62 melanoma = tested on: UACC-62 melanoma
UACC-257 melanoma = tested on: UACC-257 melanoma
HL-60(TB) leukemia = tested on: HL-60(TB) leukemia
NCI-H522 lung = tested on: NCI-H522 lung
ACHN renal = tested on: ACHN renal

CCCCCCCCCCCCCCCCCCOCC(O)COP(=O)(O)OCC1OC(n2cc(F)c(=O)[nH]c2=O)CC1O (stereo not given)
TGI (CCRF-CEM leukemia): 16.5 µM | TGI (OVCAR-3 ovarian): 46.7 µM | TGI (SK-OV-3 ovarian): 44.8 µM | TGI (NCI/ADR-RES ovarian): 22 µM | TGI (M14 melanoma): 15.5 µM | TGI (UACC-62 melanoma): 9.7 µM | TGI (UACC-257 melanoma): 32.1 µM | TGI (HL-60(TB) leukemia): 25.1 µM | TGI (NCI-H522 lung): 27.9 µM | TGI (ACHN renal): > 41.6 µM

CC(C)n1c(=O)n(-c2ccccc2)n(C(C)(C)C)c1=O
TGI (CCRF-CEM leukemia): > 100 µM | TGI (OVCAR-3 ovarian): > 100 µM | TGI (SK-OV-3 ovarian): > 100 µM | TGI (NCI/ADR-RES ovarian): > 100 µM | TGI (M14 melanoma): > 100 µM | TGI (UACC-62 melanoma): > 100 µM | TGI (UACC-257 melanoma): > 100 µM | TGI (HL-60(TB) leukemia): > 100 µM | TGI (ACHN renal): > 100 µM

COC(=O)C1(C(=O)OC)N=C(C)OC1C(C)C (stereo not given)
TGI (CCRF-CEM leukemia): > 100 µM | TGI (OVCAR-3 ovarian): > 100 µM | TGI (SK-OV-3 ovarian): > 100 µM | TGI (NCI/ADR-RES ovarian): > 100 µM | TGI (M14 melanoma): > 100 µM | TGI (UACC-257 melanoma): > 100 µM | TGI (HL-60(TB) leukemia): > 100 µM | TGI (ACHN renal): > 100 µM

CN1C2CC(=O)CC1[C@@H]1OC(c3ccccc3)O[C@H]21 (stereo not given in full)
TGI (CCRF-CEM leukemia): > 100 µM | TGI (OVCAR-3 ovarian): > 100 µM | TGI (SK-OV-3 ovarian): > 100 µM | TGI (NCI/ADR-RES ovarian): > 100 µM | TGI (M14 melanoma): > 100 µM | TGI (UACC-62 melanoma): > 100 µM | TGI (UACC-257 melanoma): > 100 µM | TGI (HL-60(TB) leukemia): > 100 µM | TGI (NCI-H522 lung): > 100 µM

COC(OC)C(O)C1OC=CC1n1cnc2c(N)ncnc21 (stereo not given)
TGI (CCRF-CEM leukemia): > 100 µM | TGI (OVCAR-3 ovarian): > 100 µM | TGI (SK-OV-3 ovarian): > 100 µM | TGI (NCI/ADR-RES ovarian): > 100 µM | TGI (UACC-62 melanoma): > 100 µM | TGI (UACC-257 melanoma): > 100 µM | TGI (ACHN renal): > 100 µM

N#CC1=CNc2sccc2S1(=O)=O
TGI (OVCAR-3 ovarian): > 100 µM | TGI (SK-OV-3 ovarian): > 100 µM | TGI (NCI/ADR-RES ovarian): > 100 µM | TGI (M14 melanoma): > 100 µM | TGI (UACC-62 melanoma): > 100 µM | TGI (UACC-257 melanoma): > 100 µM | TGI (NCI-H522 lung): > 100 µM | TGI (ACHN renal): > 100 µM

CC(C)(C)OC(=O)N1C(OP(=O)(Oc2ccccc2)Oc2ccccc2)=COc2cccnc21
TGI (OVCAR-3 ovarian): > 100 µM | TGI (SK-OV-3 ovarian): > 100 µM | TGI (NCI/ADR-RES ovarian): > 100 µM | TGI (M14 melanoma): > 100 µM | TGI (UACC-62 melanoma): > 100 µM | TGI (UACC-257 melanoma): > 100 µM | TGI (HL-60(TB) leukemia): 36.6 µM | TGI (NCI-H522 lung): > 100 µM | TGI (ACHN renal): > 100 µM

O=C(c1ccco1)N(C(=S)OCc1ccccn1)c1ccccc1
TGI (CCRF-CEM leukemia): > 100 µM | TGI (OVCAR-3 ovarian): > 100 µM | TGI (SK-OV-3 ovarian): > 100 µM | TGI (NCI/ADR-RES ovarian): > 100 µM | TGI (M14 melanoma): > 100 µM | TGI (UACC-62 melanoma): > 100 µM | TGI (UACC-257 melanoma): > 100 µM | TGI (HL-60(TB) leukemia): > 100 µM | TGI (ACHN renal): > 100 µM

O=C(N=Nc1ccccc1Br)NNc1ccccc1Br
TGI (CCRF-CEM leukemia): > 100 µM | TGI (OVCAR-3 ovarian): > 100 µM | TGI (M14 melanoma): > 100 µM | TGI (UACC-62 melanoma): > 100 µM | TGI (UACC-257 melanoma): > 100 µM | TGI (HL-60(TB) leukemia): 86.7 µM | TGI (NCI-H522 lung): > 100 µM | TGI (ACHN renal): > 100 µM

COc1cccc(-c2nc3sccn3c2-c2ccnc(NCCNC(=O)Nc3cccc(C(F)(F)F)c3)n2)c1
GI50 (CCRF-CEM leukemia): 3.43 µM | TGI (CCRF-CEM leukemia): > 100 µM | GI50 (OVCAR-3 ovarian): 4.22 µM | TGI (OVCAR-3 ovarian): 20.3 µM | GI50 (NCI/ADR-RES ovarian): 3.45 µM | TGI (NCI/ADR-RES ovarian): > 100 µM | GI50 (M14 melanoma): 2960 nM | TGI (M14 melanoma): 8.48 µM | GI50 (UACC-62 melanoma): 2550 nM | TGI (UACC-62 melanoma): 7.48 µM | GI50 (UACC-257 melanoma): 4.34 µM | TGI (UACC-257 melanoma): 16.5 µM | GI50 (HL-60(TB) leukemia): 2920 nM | TGI (HL-60(TB) leukemia): 7.43 µM | GI50 (NCI-H522 lung): 2670 nM | TGI (NCI-H522 lung): 8.51 µM | GI50 (ACHN renal): 3.17 µM | TGI (ACHN renal): 19.1 µM
